Results reported in a melting point compilation (Tetko et al.; mined from patent text by program, amines drawn as free bases though some values may be those of a salt).

Row | Compound | melting point [°C]
1 | O=C(CCSCCOCCSCCC(=O)Nc1ccc(Nc2ccccc2)cc1)Nc1ccc(Nc2ccccc2)cc1 | 154 to 156
2 | Cc1ccc2c(c1)C1CN(Cc3ccccc3)CCC1N2 (stereo not drawn) | 179 to 182
3 | OCC1Cc2c(c(Cl)cc3c(-c4ccccc4Cl)noc23)O1 (stereo not drawn) | 162 to 163
4 | C[Si](C)(C)c1cccc2cc(C(=O)Nc3ccc(N4CCC4)nc3)n(Cc3cccc(F)c3)c12 | 160 to 162
5 | CCCCc1nn2cccc(C(=O)OC)c2c1Cc1ccc(Br)cc1 | 80 to 85
6 | N#CCc1ncccc1[N+](=O)[O-] | 106 to 108
7 | CCc1c(C(=O)c2cc(C)cc(C)c2)n(CC=CC(=O)OC)c(=O)[nH]c1=O | 201 to 202
8 | CCOC(=O)c1ccc(COCc2csc3nc(C(=O)NCc4cccc(CS(C)=O)c4)[nH]c(=O)c23)cc1 (stereo not drawn) | 195 to 196
9 | CN1C(=O)CC[C@]2(C)c3ccc(-c4ccc(NC(=O)C(C)(C)C)nc4)cc3CC[C@@H]12 | 248 to 250
10 | CN(C)CCN(C1CCS(=O)(=O)C1)S(=O)(=O)c1ccc(Nc2nccc(Nc3ccc(F)cc3)n2)cc1 (stereo not drawn) | 162 to 165
11 | CC(C)c1ccc(Cn2[nH]c(N)cc2=O)cc1 | 105
12 | COc1ccccc1-c1ccc(C(=O)N2Cc3ccc(C(=O)NCc4cccn4C)n3Cc3ccccc32)cc1 | 148 to 150
13 | CCCCCCC(C)(C)c1ccc(C2=CC(=O)CCC2)c(O)c1 | 122 to 123
14 | Cc1ccc(N2C(=O)C(O)=C(C(=O)c3ccc(C(C)C)cc3)C2c2ccc(N(C)C)cc2)nn1 (stereo not drawn) | 283 to 286
15 | NCC1COc2cc(F)cc(-c3cccc(Cl)c3)c2N1 (stereo not drawn) | 76
16 | CC1CCC2CC(=O)N(Cc3ccccc3)C3OC4(C)CCC1C23OO4 (single isomer, unassigned; (-)) | 177 to 179
17 | O=c1[nH]c2cc(Cl)ccc2c(=O)n1S(=O)(=O)c1ccc(Cl)cc1F | 267 to 268
18 | O=C1NC(=O)C(c2c[nH]c3ccccc23)=C1C(=O)c1cn2c3c(cccc13)CCC2 | > 300
19 | Nc1nc2ccccc2c2c1ncn2CCCCCCNC(=O)c1ccccc1 | 146 to 155
20 | CN(C)c1ccc2nc(-c3c[nH]c4ccccc34)[nH]c(=O)c2c1 | > 300
21 | CSc1c[nH]nc1C1CN2CCC1CC2 (stereo not drawn) | 145 to 147
22 | CCOC(=O)C1(C(=O)OCC)C(CC)C(=O)N1Cc1ccc(OC)cc1OC (stereo not drawn) | 69
23 | COc1ccc([C@H]2C=CN(S(=O)(=O)c3ccc(OC)cc3)C(=O)[C@H]2CCC2C=CC=CC2=O)cc1 (stereo partly drawn) | 159 to 161
24 | CC1(C)[C@@H](C(=O)Nc2cc(C(F)(F)F)n[nH]2)[C@@H]1c1ccccc1 (relative stereo) | 68 to 71
25 | Cc1ccc(S(=O)(=O)OCC2Cc3cccc(-c4ccc(F)cc4F)c3O2)cc1 (stereo not drawn) | 116 to 118

Row | Compound | melting point [°C]
26 | CC(C)=CC(C#N)NC(=O)c1cn(C)nc1C (stereo not drawn) | 110 to 112
27 | Nc1ccccc1OCc1ccc2ccccc2n1 | 62 to 64
28 | O=C(O)CCCCCCc1nc2c(F)c(F)cc(F)c2s1 | 116 to 118
29 | Cc1cc(C)c2c(c1)-c1cc(Br)c(C)cc1P(=O)(O)O2 | 260
30 | CON1C(=O)CC12C=CC(=O)C=C2 | 107 to 109
31 | O=c1c(-c2cccc(C(F)(F)F)c2)c(Cl)cnn1-c1ccc(F)cc1 | 88 to 90
32 | CCOc1ccc(C(OC2CCN(CCCCCC(=O)O)CC2)c2ccccc2)cc1 (stereo not drawn) | 110 to 112
33 | CCOC(=O)COc1c(C=O)cccc1OC | 75.1 to 76.2
34 | C[C@@H]1Cc2ccsc2[C@H](C)N1CCCNC(=O)c1ccc(NS(C)(=O)=O)cc1 (relative stereo) | 148 to 150
35 | CSc1cc2[nH]ccc2cc1F | 51
36 | O=S1(=O)c2cccc3cccc(c23)N1CCCN1CCN(c2ccccc2O)CC1 | 128
37 | COCc1cnc2c(NC(=O)c3c(Cl)cccc3Cl)ccc(C)c2c1N1CCN(C)C1=O | 105 to 112
38 | OCc1ccc2c(ccc3c4ccccc4ccc23)c1 | 261 to 262
39 | COc1cc(Oc2cccc(C(F)(F)F)c2)nc(C(=O)NN=CCC#N)c1 | 98 to 100
40 | COc1c(-c2cc3c(s2)CCC(C)(C)C3N=[N+]=[N-])ccc2c(=O)c(C(=O)O)cn(C3CC3)c12 (stereo not drawn) | 89 to 90
41 | CSc1ccc(/C=C2/C(C)=C(CC=NO)c3cc(F)ccc32)cc1 | 146 to 150
42 | O=C(O)Cn1nc(-c2ccccc2O)nc1-c1ccccc1O | 231 to 233
43 | CN1C(=O)C(=O)NCC1(CCO)c1ccc(Cl)c(Cl)c1 (stereo not drawn) | 260
44 | CC(=O)CCc1cccc(C)c1NC(=O)CC1c2ccccc2Oc2ccccc21 | 179 to 180
45 | CCOC(=O)CCc1cn(Cc2cccnc2OCc2csc(-c3ccccc3)n2)nc1-c1ccccc1 | 88 to 89
46 | Nc1ccccc1C(=O)COC(=O)c1ccccc1 | 125
47 | O=Cc1c[nH]c2c1ccc1c3cccc(F)c3[nH]c12 | > 250
48 | CC(=O)N[C@H]1CC[C@H](c2ccc(N)cc2)CC1 | 195 to 196
49 | O=S(=O)(Nc1ccc2c(OCc3csc(-c4ccccc4)n3)cccc2c1)C(F)(F)F | 89 to 99
50 | O=C(O)c1cccnc1NCc1ccc(Cl)cc1 | 240 to 242

Row | Compound | melting point [°C]
51 | COc1cc(C=CC(=O)Nc2ccccc2C(=O)O)ccc1O | 208
52 | COC(=O)c1cc(-c2c[nH]nc2-c2ccc(F)cc2)ccn1 | 239 to 241
53 | CC(C)(C)OC(=O)CN(Cc1ccccn1)c1cc(C(F)(F)F)c(Br)c(C(F)(F)F)c1 | 77 to 78
54 | CC1(C)C(=O)C(c2ccccc2)=C1c1ccc(S(C)(=O)=O)cc1 | 145 to 146
55 | CNC(=O)CONC(=O)c1cc(Br)cc(Br)c1NC(=O)c1cc(Br)nn1-c1ncccc1Cl | 220 to 221
56 | COCCOc1ccc2c(=O)c(C#N)c[nH]c2c1 | > 250
57 | CCCc1nc(C)n2nc(S(=O)(=O)N(C)C)nc2c1Cc1ccc(-c2ccccc2C#N)cc1 | 158
58 | Brc1cccc(OCc2ccc3ccccc3c2)n1 | 67 to 69
59 | CN(C(=O)Cc1ccccc1)c1cccc(-c2ccc(CC3SC(=O)NC3=O)cc2)c1 (stereo not drawn) | 138
60 | O=C(O)CN(Cc1cccc(Cn2cc(C3c4ccccc4C=Cc4ccccc43)c(=S)[nH]c2=O)c1)C(=O)OCc1ccccc1 | 120
61 | CCCCCC(C)C(C)c1cc(O)c(CN2CCN(C)CC2)c(O)c1 (stereo not drawn) | 129 to 133
62 | Nc1cccc(Oc2ccc(C(=O)c3ccc(C#Cc4ccccc4)cc3)cc2)c1 | 137 to 139
63 | CCOC(=O)c1cn(CC)c2c(F)c(C(C)=O)c(F)cc2c1=O | 129 to 130
64 | Cc1oc(-c2ccco2)nc1COc1ccc(Cn2cc(CCC(=O)O)c(OCc3ccccc3)n2)cc1 | 104 to 105
65 | COc1ccc(CC2C(=O)N(Cc3ccccc3)c3ccccc3N(C(=O)CN3C(=O)c4ccccc4C3=O)C2C)cc1 (stereo not drawn) | 247 to 248
66 | O=C(O)c1cc(-c2ncnc(C(F)F)c2Cl)c(F)cc1Cl | 217 to 219
67 | Fc1ccc(-c2cc(Cl)nc3c2CCCC3)cc1 | 111 to 112
68 | COC(=O)c1cc(-c2ccc(OC)c(Cl)c2)nn(CC(C)C)c1=O | 108 to 109
69 | CN(C)C(=O)c1ccccc1Sc1ccc(Cl)cc1C=O | 87 to 88
70 | CCCCOc1ccc(S(=O)(=O)N2CC(NC[C@H](O)COc3ccc(O)cc3)C2)cc1 | 55 to 58
71 | Cc1nc(C)c(C(=O)NC(C)c2ccccc2)cc1CCl (stereo not drawn) | 165
72 | Cc1[nH]c(C(=O)NCCc2ccccn2)c(C)c1-c1nc2ccc(Oc3ccccc3)cc2[nH]1 | 290 to 293
73 | CN1C2CCC1CC(NC(=O)OC(C)(C)C)C2 (stereo not drawn) | 79 to 81
74 | O=C(CCc1ccccc1)c1cc2ccncc2[nH]1 | 246 to 250
75 | OCc1cn2c(n1)CN=C(c1ccccn1)c1cc(Cl)ccc1-2 | 206 to 207

Row | Compound | melting point [°C]
76 | O=C(Nc1ccc2ccc(Oc3ccccc3)nc2n1)C1=CSCCS1 | 240
77 | CNc1nc(SC)ncc1C=O | 98 to 100
78 | NC(=O)N1CCC(Oc2c(F)c(F)c(F)c(F)c2F)(c2ccccc2)CC1 | 155 to 160
79 | O=C(O)Cc1ccc(OCc2ccc3oc([N+](=O)[O-])c(-c4ccccc4)c3c2)cc1 | 179 to 180
80 | O=C(O)c1cccc(CO[N+](=O)[O-])c1 | 123 to 125
81 | CN(CCOc1ccc(CCOCCc2ncno2)cc1)c1nc2ccccc2o1 | 89 to 90
82 | CCCCCC(O)CCCC(Cc1ccc(C=CC(=O)O)cc1)C(C)=O (stereo not drawn) | 87 to 92
83 | CC(=O)OC1CSC(Oc2cncc(-c3cccnc3Cl)c2)C(OC(C)=O)C1OC(C)=O (stereo not drawn) | 162
84 | CCOC(=O)C1=Cc2cc(C(F)(F)F)ccc2NC1C(F)(F)F (stereo not drawn) | 138 to 139
85 | Clc1ccc(Cn2cnc3c(-c4ccco4)ncnc32)cc1 | 156 to 159
86 | CCOC(=O)c1cnc2nn(C)cc2c1OC(C)C | 107 to 109
87 | COC(=O)/C=C/Cn1c(=O)c2cc(C(=O)NCc3ccc(OC)cc3)sc2n(C)c1=O | 169 to 171
88 | CCCCNc1nc(N)nc2c1ncn2C1CC(N=[N+]=[N-])C(CO)O1 (stereo not drawn) | 44 to 47
89 | Cc1cnnc2c1C(=O)CC(c1cc(Cl)sc1Cl)C2 (stereo not drawn) | 137 to 138
90 | CCc1nc2c(C)cc(C)nc2n1Cc1ccc(NCC2CCNCC2)cc1 | 165 to 168
91 | Cc1ccccc1-c1nc(N)ncc1-c1ccc(=O)n(C(C)C)n1 | 203
92 | Cc1c(O)cccc1C(=O)N[C@@H](Cc1ccccc1)[C@H](O)C(=O)N1CSC(C)(C)[C@H]1C(=O)N[C@H]1CCSc2ccccc21 | 125 to 127
93 | CCn1nc2oc(C=CC(N)=O)c(C)c2c1C | 258 to 260
94 | C#CCOC(=O)Oc1ccc2ccc(OC(=O)OCC#C)cc2c1 | 94 to 96
95 | Sc1nnc(-c2cc3c(Oc4ccc(Cl)cc4)cncc3s2)o1 | 236 to 240
96 | CCOC(=O)CC(=O)c1cc(Oc2ccccc2)c(NS(C)(=O)=O)cc1O | 112
97 | CC1(C)C(=O)ON(Cc2ccccc2Br)C1=O | 44.5 to 45.5
98 | CC(=O)Nc1cnn2c1-c1ccccc1N(C(C)=O)C2C (stereo not drawn) | 218 to 220
